A word on the EC50: it is the concentration that produces a half-maximal response. Usually IC50 stands for the point on the concentration scale where inhibition reaches its midpoint.

One experiment concerns A549 cells. Description: Proliferation Assay (A549 cell viability, Cell Titer Fluor). It counts as cell-based. The settings on record: Homo sapiens, 72 hours. The method, boiled down:
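Compound exposure lasted 72 h (final DMSO 0.5% v/v) on A549 cells plated at 1000 cells/well one day earlier. Cell Titer Fluor added, 30 min at 37 °C, fluorescence read; EC50 derived by four-parameter logistic curve fitting.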

For experiment [1], the target named is T1, purified recombinant human GAC (GLS1) (Homo sapiens, UniProt O94925).
T1 sequence (O94925 55-598 isoform O94925-3 limits assumed): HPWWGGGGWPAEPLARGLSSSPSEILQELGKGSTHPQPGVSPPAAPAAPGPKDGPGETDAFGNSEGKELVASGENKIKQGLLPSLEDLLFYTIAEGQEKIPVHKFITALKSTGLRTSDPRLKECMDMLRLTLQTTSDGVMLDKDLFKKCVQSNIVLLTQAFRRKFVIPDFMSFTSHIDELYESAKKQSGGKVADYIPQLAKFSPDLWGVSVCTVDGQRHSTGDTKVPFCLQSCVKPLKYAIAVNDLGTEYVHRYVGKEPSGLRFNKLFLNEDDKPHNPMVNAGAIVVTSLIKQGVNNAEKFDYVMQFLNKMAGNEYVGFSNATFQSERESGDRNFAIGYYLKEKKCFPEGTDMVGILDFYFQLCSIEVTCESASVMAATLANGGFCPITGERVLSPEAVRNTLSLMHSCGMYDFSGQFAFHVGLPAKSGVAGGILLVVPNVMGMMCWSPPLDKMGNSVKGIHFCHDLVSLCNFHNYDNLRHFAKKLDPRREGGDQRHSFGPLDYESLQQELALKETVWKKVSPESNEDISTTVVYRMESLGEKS
The experiment is described as follows: GLS1 Enzymatic Activity Assay (dual-coupled enzymatic assay). It counts as biochemical. The method, boiled down:
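In this coupled fluorometric format, phosphate-activated GAC (2 nM, 50 mM phosphate) is pre-exposed to compound for 10 min before 1 mM glutamine addition. Product is tracked as resorufin (530/590 nm) over time or at 20 min, and potency is derived by logistic fitting.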

Structures are written as SMILES.

Turning to `CC(C)OC(=O)N1CC(c2cc3cc(CCCCn4cc(C(=O)NCc5cc(OC(F)(F)F)ccc5F)nn4)nnc3[nH]2)C1` [Example 131, propan-2-yl 3-(3-{4-[4-({[2-fluoro-5-(trifluoromethoxy)phenyl]methyl}carbamoyl)-1H-1,2,3-triazol-1-yl]butyl}-7H-pyrrolo[2,3-c]pyridazin-6-yl)azetidine-1-carboxylate], in the experiment with A549 cells, the EC50 was less than 100 nM. The IC50 in experiment [1] was less than 100 nM.
`CCOC(=O)N1CC(c2cc3cc(CCCCn4cc(C(=O)NCc5cc(OC(F)(F)F)ccc5F)nn4)nnc3[nH]2)C1` [Example 132, ethyl 3-(3-{4-[4-({[2-fluoro-5-(trifluoromethoxy)phenyl]methyl}carbamoyl)-1H-1,2,3-triazol-1-yl]butyl)-7H-pyrrolo[2,3-c]pyridazin-6-yl)azetidine-1-carboxylate] yielded a concentration giving a half-maximal response (EC50) in the experiment with A549 cells of less than 100 nM. Further, in experiment [1], the IC50 is less than 100 nM.
`CC(C)(O)C(=O)N1CC(c2cc3cc(CCCCn4cc(C(=O)NCc5cc(OC(F)(F)F)ccc5F)nn4)nnc3[nH]2)C1` [Example 133, N-{[2-fluoro-5-(trifluoromethoxy)phenyl]methyl}-1-(4-{6-[1-(2-hydroxy-2-methylpropanoyl)azetidin-3-yl]-7H-pyrrolo[2,3-c]pyridazin-3-yl}butyl)-1H-1,2,3-triazole-4-carboxamide] came in with a half-maximal effective concentration (EC50) with A549 cells of 100 to 500 nM. Also, the IC50 in experiment [1] was less than 100 nM.
The molecule `O=C(NCc1ccccn1)c1cn(CCCCc2cc3cc(-c4ccccc4F)[nH]c3nn2)nn1` [Example 134, 1-(4-(6-(2-fluorophenyl)-7H-pyrrolo[2,3-c]pyridazin-3-yl)butyl)-N-(pyridin-2-ylmethyl)-1H-1,2,3-triazole-4-carboxamide] had an EC50 in the experiment with A549 cells of less than 100 nM. Further, in experiment [1], the IC50 was less than 100 nM.
On to `Cn1nccc1-c1c(C2CC2)[nH]c2nnc(CCCCn3cc(C(=O)NCc4ccccn4)nn3)cc12` [Example 135, 1-{4-[6-cyclopropyl-5-(1-methyl-1H-pyrazol-5-yl)-7H-pyrrolo[2,3-c]pyridazin-3-yl]butyl}-N-(pyridin-2-ylmethyl)-1H-1,2,3-triazole-4-carboxamide], for which the 50% effective concentration (EC50) in the experiment with A549 cells lay within 500 to 5000 nM. For the same molecule, the IC50 in experiment [1] is less than 100 nM.
For `CS(=O)(=O)c1cccc(-c2c(C3CC3)[nH]c3nnc(CCCCn4cc(C(=O)NCc5ccccn5)nn4)cc23)c1` [Example 136, 1-{4-[6-cyclopropyl-5-(3-methanesulfonylphenyl)-7H-pyrrolo[2,3-c]pyridazin-3-yl]butyl}-N-(pyridin-2-ylmethyl)-1H-1,2,3-triazole-4-carboxamide] the same measures were 500 to 5000 nM and less than 100 nM.
Taken in the same sequence, the figures for `CS(=O)(=O)Nc1cccc(-c2c(C3CC3)[nH]c3nnc(CCCCn4cc(C(=O)NCc5ccccn5)nn4)cc23)c1` [Example 137, 1-{4-[6-cyclopropyl-5-(3-methanesulfonamidophenyl)-7H-pyrrolo[2,3-c]pyridazin-3-yl]butyl}-N-(pyridin-2-ylmethyl)-1H-1,2,3-triazole-4-carboxamide] were 500 to 5000 nM and less than 100 nM.
In turn, `O=C(NCc1ccccn1)c1cn(CCCCc2cc3c(-c4ccc(O)cc4)c(C4CC4)[nH]c3nn2)nn1` [Example 138, 1-{4-[6-cyclopropyl-5-(4-hydroxyphenyl)-7H-pyrrolo[2,3-c]pyridazin-3-yl]butyl}-N-(pyridin-2-ylmethyl)-1H-1,2,3-triazole-4-carboxamide] came in with a 50% effective concentration (EC50) with A549 cells of 500 to 5000 nM. Also, in experiment [1], the concentration for half-maximal inhibition (IC50) is less than 100 nM.
Consider `O=C(NCc1ccccn1)c1cn(CCCCc2cc3c(-c4ccsc4)c(C4CC4)[nH]c3nn2)nn1` [Example 139, 1-{4-[6-cyclopropyl-5-(thiophen-3-yl)-7H-pyrrolo[2,3-c]pyridazin-3-yl]butyl}-N-(pyridin-2-ylmethyl)-1H-1,2,3-triazole-4-carboxamide], for which the EC50 with A549 cells fell in the range of 100 to 500 nM. For the same molecule, in experiment [1], the IC50 is less than 100 nM.
For `N#CCC(=O)N1CC(c2cc3cc(CCCCn4cc(C(=O)NCc5cc(OC(F)(F)F)ccc5F)nn4)nnc3[nH]2)C1` [Example 140, 1-(4-{6-[1-(2-cyanoacetyl)azetidin-3-yl]-7H-pyrrolo[2,3-c]pyridazin-3-yl}butyl)-N-{[2-fluoro-5-(trifluoromethoxy)phenyl]methyl}-1H-1,2,3-triazole-4-carboxamide] the same measures were 500 to 5000 nM and less than 100 nM.
For `O=C(NCc1cc(OC(F)(F)F)ccc1F)c1cn(CCCCc2cc3cc(C4CN(C(=O)CC(F)(F)F)C4)[nH]c3nn2)nn1` [Example 141, N-{[2-fluoro-5-(trifluoromethoxy)phenyl]methyl}-1-(4-{6-[1-(3,3,3-trifluoropropanoyl)azetidin-3-yl]-7H-pyrrolo[2,3-c]pyridazin-3-yl}butyl)-1H-1,2,3-triazole-4-carboxamide] the same measures were 100 to 500 nM and less than 100 nM.
For `O=C(NCc1cccc(OC(F)(F)F)c1)c1cn(CCCCc2cc3c(-c4ccccn4)c(C4CC4)[nH]c3nn2)nn1` [Example 143, 1-{4-[6-cyclopropyl-5-(pyridin-2-yl)-7H-pyrrolo[2,3-c]pyridazin-3-yl]butyl}-N-{[3-(trifluoromethoxy)phenyl]methyl}-1H-1,2,3-triazole-4-carboxamide] the same measures were less than 100 nM and less than 100 nM.
In the experiment with A549 cells, `O=C(NCc1cc(OC(F)(F)F)ccc1F)c1cn(CCCCc2cc3c(-c4ccccn4)c(C4CC4)[nH]c3nn2)nn1` [Example 144, 1-{4-[6-cyclopropyl-5-(pyridin-2-yl)-7H-pyrolo[2,3-c]pyridazin-3-yl]butyl}-N-{[2-fluoro-5-(trifluoromethoxy)phenyl]methyl}-1H-1,2,3-triazole-4-carboxamide] displayed a concentration giving a half-maximal response (EC50) of less than 100 nM. In experiment [1], the IC50 is less than 100 nM.
Regarding `O=C(NCc1ccccn1)c1cn(CCCCc2cc3c(-c4ccc5c(c4)OCO5)c(C4CC4)[nH]c3nn2)nn1` [Example 145, 1-{4-[5-(2H-1,3-benzodioxol-5-yl)-6-cyclopropyl-7H-pyrrolo[2,3-c]pyridazin-3-yl]butyl}-N-(pyridin-2-ylmethyl)-1H-1,2,3-triazole-4-carboxamide], the EC50 in the experiment with A549 cells was 100 to 500 nM. Moreover, in experiment [1], the IC50 was less than 100 nM.
Taken in the same sequence, the figures for `Cc1ccc(CNC(=O)c2cn(CCCCc3cc4c(-c5ccc6c(c5)OCO6)c(C5CC5)[nH]c4nn3)nn2)cn1` [Example 146, 1-{4-[5-(2H-1,3-benzodioxol-5-yl)-6-cyclopropyl-7H-pyrrolo[2,3-c]pyridazin-3-yl]butyl}-N-[(6-methylpyridin-3-yl)methyl]-1H-1,2,3-triazole-4-carboxamide] were less than 100 nM and less than 100 nM.
Taken in the same sequence, the figures for `Cc1ccc(CNC(=O)c2cn(CCCCc3cc4c(-c5ccc(F)cc5F)c(C5CC5)[nH]c4nn3)nn2)cn1` [Example 147, 1-{4-[6-cyclopropyl-5-(2,4-difluorophenyl)-7H-pyrrolo[2,3-c]pyridazin-3-yl]butyl}-N-[(6-methylpyridin-3-yl)methyl]-1H-1,2,3-triazole-4-carboxamide] were less than 100 nM and less than 100 nM.
In the experiment on A549 cells, `O=C(NCc1cc(OC(F)(F)F)ccc1F)c1cn(CCCCc2cc3cc(C4CN(C(=O)OCC(F)(F)F)C4)[nH]c3nn2)nn1` [Example 148, 2,2,2-trifluoroethyl 3-(3-{4-[4-({[2-fluoro-5-(trifluoromethoxy)phenyl]methyl}carbamoyl)-1H-1,2,3-triazol-1-yl]butyl}-7H-pyrrolo[2,3-c]pyridazin-6-yl)azetidine-1-carboxylate] had an EC50 of less than 100 nM. The 50% inhibitory concentration (IC50) in experiment [1] was less than 100 nM.
In the case of `O=C(NCc1ccccn1)c1cn(CCCCc2cc3cc(-c4cccc(OC(F)(F)F)c4)[nH]c3nn2)nn1` [Example 149, N-(pyridin-2-ylmethyl)-1-(4-{6-[3-(trifluoromethoxy)phenyl]-7H-pyrrolo[2,3-c]pyridazin-3-yl}butyl)-1H-1,2,3-triazole-4-carboxamide], in the experiment on A549 cells, the EC50 lay in the range of 500 to 5000 nM. The IC50 in experiment [1] was less than 100 nM.
Taken in the same sequence, the figures for `CC(C)(C)OC(=O)N1CCC(c2cc3cc(CCCCn4cc(C(=O)NCc5cc(OC(F)(F)F)ccc5F)nn4)nnc3[nH]2)CC1` [Example 150, tert-butyl 4-(3-{4-[4-({[2-fluoro-5-(trifluoromethoxy)phenyl]methyl}carbamoyl)-1H-1,2,3-triazol-1-yl]butyl}-7H-pyrrolo[2,3-c]pyridazin-6-yl)piperidine-1-carboxylate] were less than 100 nM and less than 100 nM.
For `O=C(NCc1ccccn1)c1cn(CCCCc2cc3c(-c4ccc(F)cc4F)c(C4CC4)[nH]c3nn2)nn1` [Example 151], the EC50 with A549 cells lay within 100 to 500 nM. Further, the IC50 in experiment [1] was less than 100 nM.
As for `CC(=O)Nc1cccc(-c2c(C3CC3)[nH]c3nnc(CCCCn4cc(C(=O)NCc5ccc(C(C)(C)O)nc5)nn4)cc23)c1` [Example 152, 1-{4-[6-cyclopropyl-5-(3-acetamidophenyl)-7H-pyrrolo[2,3-c]pyridazin-3-yl]butyl}-N-{[6-(2-hydroxypropan-2-yl)pyridin-3-yl]methyl}-1H-1,2,3-triazole-4-carboxamide], the half-maximal effective concentration (EC50) with A549 cells is 500 to 5000 nM. The IC50 in experiment [1] was less than 100 nM.

Values taken from US20160002248A1, “GLS1 INHIBITORS FOR TREATING DISEASE” (Board of Regents, The University of Texas System, priority 2014, published 2016).
